Reference: publication PMC7807814 (ACS Omega, 2020)

Molecular target: GST–VCB protein complex (Homo sapiens, UniProt P40337)
Assay type: binding
Conditions: reported FP Kd versus TR-FRET Ki

Chain of GST–VCB protein complex (P40337 54-213): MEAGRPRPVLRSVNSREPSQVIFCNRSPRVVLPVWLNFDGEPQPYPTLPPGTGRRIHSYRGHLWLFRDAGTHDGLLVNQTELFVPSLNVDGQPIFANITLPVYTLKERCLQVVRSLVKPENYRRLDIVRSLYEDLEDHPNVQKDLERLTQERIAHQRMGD
Chain of GST–VCB protein complex (Q15369 17-112, further chain): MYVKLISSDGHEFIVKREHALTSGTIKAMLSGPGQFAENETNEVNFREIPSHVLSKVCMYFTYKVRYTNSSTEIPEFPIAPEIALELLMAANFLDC
Chain of GST–VCB protein complex (Q15370 whole entry, further chain): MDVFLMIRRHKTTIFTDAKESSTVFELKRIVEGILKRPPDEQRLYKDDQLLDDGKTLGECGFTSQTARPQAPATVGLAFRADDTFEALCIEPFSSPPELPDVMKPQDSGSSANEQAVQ

sensitivity of TR-FRET assay over FAM–HIF–1α peptide (19 mer)-based FP assay [fold] | SMILES
4.49 | CC(=O)N[C@H](C(=O)N1C[C@H](O)C[C@H]1C(=O)NCc1ccc(-c2scnc2C)cc1)C(C)(C)C [VH032 (1), (2S,4R)-1-((S)-2-Acetamido-3,3-dimethylbutanoyl)-4-hydroxy-N-(4-(4-methylthiazol-5-yl)benzyl)pyrrolidine-2-carboxamide]
4.23 | Cc1ncsc1-c1ccc(CNC(=O)[C@@H]2C[C@@H](O)CN2C(=O)[C@@H](NC(=O)C2(C#N)CC2)C(C)(C)C)cc1 [VH298 (2), (2S,4R)-1-((S)-2-(1-Cyanocyclopropanecarboxamido)-3,3-dimethylbutanoyl)-4-hydroxy-N-(4-(4-methylthiazol-5-yl)benzyl)pyrrolidine-2-carboxamide]
